The text below walks through data of patent US6066642A, “Dihydropyridine-, pyridine-, benzopyran-4-one- and triazoloquinazoline derivative, their preparation and their use as adenosine receptor antagonists” (priority 1998, dated 2000).

The structures appear in SMILES notation.

Data set [1] deals with adenosine receptor. The following applies: [3H]cyclohexyladenosine and [3H]1,3-diethyl-8-phenylxanthine; cited from earlier work.
Data set [2] concerns adenosine receptors. The following applies: pancreatic islets; cited from earlier work.
Data set [3] relates to HL-60 cells. Nature of the data set: live cell counting with trypan blue (cell death/proliferation), HL-60 cells. In kind it is cell-based. How it is done: (§1) The HL-60 cells were maintained in RPMI 1640 supplmented with 10% fetal calf serum, 100 units/ml penicillin, […] streptomycin and 2 mM L-glutamine. The cells were split every third day, and 2 days before each experiment cultures were diluted to 2×10^5 cells/ml. For analysis of DNA content, aliquots of 2 ml were placed into 12-well flat-bottomed plates (Costar, Cambridge, Mass., U.S.A.) containing 2~6 μl test-compound solutions at defined concentrations or 6 μl DMSO (diluting medium). Live cell counting was carried out using 0.1% trypan blue.
(§2) In the latter assay, cell death was studied in HL-60 cells (FIGS. 11A-B) and in U-937 cells (FIGS. 11C-D) over a time course of 9 days. Cells in culture receiving no drug treatment proliferated geometrically until nearly the end of the experiment.

Data set [4] concerns U-937 cells. The data set can be described thus: live cell counting with trypan blue (cell death/proliferation), U-937 cells. In kind it is cell-based. As to the method: as §1, §2
The test system of data set [5] is HL-60 cells. Nature of the data set: in situ end-labeling of fragmented nuclear DNA (TUNEL), HL-60 cells. In kind it is cell-based. As to the method:
(§3) Cells were fixed by immersing slides in 4% methanol-free formaldehyde in PBS at pH 7.4, 4° C., for 25 min. Fixed cells were permeabilized in 0.2% Triton® X-100 in PBS at 4° C. for 5 min. After preincubation with […] Promega equilibration buffer for 10 min at room temperature, the cells were covered with 50 μl TdT incubation buffer and a coverslip and maintained at 37° C. for 60 min inside the dark humidified chamber to protect from dry and direct light. In order to stop the reaction, the coverslip was removed and the slides were immersed in 2×SSC for 15 min at room temperature. The cells were restained by propidium iodide 1 μg/ml in PBS for 15 min. After every step, the cells were rinsed 2-3 times with fresh PBS for 5 min each. Finally, the glass slides were sealed with nail polish. The slides were stored at 4° C. in the dark.
(§4) The evidence that DNA strand breaks, characteristic of apoptosis, are induced by the A3 antagonists was obtained using in situ end-labelingin-situ of fragmented nuclear DNA by terminal deoxynucleotidyl transferase (TUNEL method, Cooke, H., Trends in Biotech., 10, 23 (1992)), which incorporates a fluorescent label at the 3'-ends. […] In the control cultures and in those treated with 10 nM Cl-IB-MECA alone, spontaneous apoptosis occured in only 5-7% of the cells (Table 17). […] The reversal of antagonist-induced apoptosis by the agonist is similar to that observed for the growth curves, except that both agonist and antagonist were applied at lower concentrations.

In data set [6] the test system is U-937 cells. The data set can be described thus: in situ end-labeling of fragmented nuclear DNA (TUNEL), U-937 cells. In kind it is cell-based. As to the method:
as §3, §4

Data set [7] relates to bak protein in HL-60 cells. Nature of the data set: expression of apoptosis-inducing protein bak by immunofluorescence, HL-60 cells. In kind it is cell-based. How it is done: (§5) Cells were fixed as following steps: 10 min with 1% formalin in PBS, 5 min with […] methanol and 2 min with ice cold acetone, then permebilized with 0.1% Nonidet P-40 for 20 min. After the preparation, the specimens were incubated step by step: 10% goat serum in PBS for 20 min, mouse monoclonal anti-bak antibody (5 μg/ml PBS-BSA) for 60 min, Rhodamine (TRITC)-conjugated AffiniPure Goat Anti-mouse IgG (H+L) in PBS-BSA for 60 min. The specimens were washed 3-5 times with PBS after every step. The glass slides were stored at 4° C. in the dark.
(§6) The mechanism of the apoptosis observed in response to either A3 agonists was investigated.

Data set [8] has as its system bak protein in U-937 cells. Nature of the data set: expression of apoptosis-inducing protein bak by immunofluorescence, U-937 cells. In kind it is cell-based. As to the method:
as §5, §6

The test system of data set [9] is A3 specific binding. Nature of the data set: A3 specific binding after blocking A1 and A2 specific binding sites with a xanthine amino congener. The following applies: A1 and A2 sites blocked with xanthine amino congener. An excerpt: Adenosine receptors have been implicated in the bronchoconstriction (BC) in allergic asthma.
The subject of data set [10] is HL-60 cells. Nature of the data set: apoptosis by flow cytometric DNA analysis, HL-60 cells. In kind it is cell-based. (A flow cytometer gives signals particle by particle.)
Method: DNA content analysis by flow cytometry:
(§8) Cells were fixed by adding ~10^7 cells suspended in 1 ml of PBS of 1 ml 80% ethanol at -20° C. and stored for 48-120 hrs. After the cells were washed twice with PBS, the cells were stained with 20 mg/ml chromomycin A3 dissolved in PBS containing 2 mM MgCl2 by incubation in subdued light (30 min; 4° C.). The cells were then analyzed using a FACScan flow cytometer (Becton Dickinson, Mountain View, Calif.).
For data set [11], the system named is U-937 cells. The data set can be described thus: apoptosis by flow cytometric DNA analysis, U-937 cells. In kind it is cell-based.
Method: DNA content analysis by flow cytometry:
as §8
For data set [12], the system named is bak in MCF7 breast adenocarcinoma cells. Nature of the data set: expression of bak, MCF7 cells. In kind it is cell-based. The following applies: 10 μM. As to the method:
as §5
(§7) Various other cell lines were investigated for the expression of bak in response to the A3 agonist.

The test system of data set [13] is bak in 1321N astrocytoma cells. The data set can be described thus: expression of bak, 1321N cells. In kind it is cell-based. Conditions: 10 μM. As to the method:
as §5, §7

Data set [14] concerns the target T1, A1 receptors (Rattus norvegicus, UniProt P25099).
T1 sequence (P25099 1-326): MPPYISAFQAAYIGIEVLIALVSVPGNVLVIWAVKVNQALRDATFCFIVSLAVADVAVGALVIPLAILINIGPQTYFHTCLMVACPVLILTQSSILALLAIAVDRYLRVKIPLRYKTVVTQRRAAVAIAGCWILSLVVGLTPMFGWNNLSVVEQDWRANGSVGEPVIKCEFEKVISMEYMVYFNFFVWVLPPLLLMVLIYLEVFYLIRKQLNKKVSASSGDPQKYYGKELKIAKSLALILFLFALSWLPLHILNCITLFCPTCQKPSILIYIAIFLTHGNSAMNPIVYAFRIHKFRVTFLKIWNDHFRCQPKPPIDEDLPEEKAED
The data set can be described thus: biochemical. In kind it is binding. The following applies: Table 15; [3H]PIA, rat brain membranes; read-out: Ki rA1.
Method: ^a Displacement of specific [^3 H] PIA binding in rat brain
percentage of specific binding displaced at 100 μM.

The target in data set [15] is T2, A2a receptors (Rattus norvegicus, UniProt P30543).
T2 construct: Displacement of specific [^3 H]; from tissue; host or cells: rat striatal membranes
Nature of the data set: radioligand binding, displacement of specific [3H]CGS 21680 binding in rat striatal membranes. The following applies: Table 15; [3H]CGS 21680, rat striatal membranes; read-out: Ki rA2A.
Method: ^b Displacement of specific [^3 H]
or as a percentage of specific binding displaced at 100 μM.

Where [16] appears, read: antagonist 0.5 μM plus 0.01 or 1.0 μM Cl-IB-MECA.
[17] abbreviates: Table 17, antagonist 50 nM plus Cl-IB-MECA 10 nM, 48 hour.
Where [18] appears, read: Table 17, antagonist 50 nM, 48 hour.
Setting [19] is: sublethal concentrations incl. 10 nM.
Setting [20] is: 10 nM Cl-IB-MECA with either antagonist.
Where [21] appears, read: 10 nM alone, range covers both cell lines and controls.
Setting [22] is: Table 17, Cl-IB-MECA 10 nM, 48 hour.

T2 sequence (P30543 whole entry): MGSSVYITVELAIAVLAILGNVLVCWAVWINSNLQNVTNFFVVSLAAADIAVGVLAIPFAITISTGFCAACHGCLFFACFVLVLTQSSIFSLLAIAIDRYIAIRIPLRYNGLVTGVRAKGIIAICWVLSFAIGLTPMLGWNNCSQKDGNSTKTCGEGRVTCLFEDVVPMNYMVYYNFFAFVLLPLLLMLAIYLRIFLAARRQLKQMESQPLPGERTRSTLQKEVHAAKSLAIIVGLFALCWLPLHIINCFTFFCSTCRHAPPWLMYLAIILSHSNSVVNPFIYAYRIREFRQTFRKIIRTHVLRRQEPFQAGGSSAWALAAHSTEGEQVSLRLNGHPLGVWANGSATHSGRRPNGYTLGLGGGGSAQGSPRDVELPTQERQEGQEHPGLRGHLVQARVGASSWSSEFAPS

For `COc1ccc(CCN(C)CCCC(C#N)(c2ccc(OC)c(OC)c2)C(C)C)cc1OC` (stereo not drawn) [verapamil], the “effect on adenosine receptor binding” value in data set [1] is recorded as “negligible effects on adenosine receptor binding”. For the same compound, the “interaction with adenosine receptors mediating inhibition of insulin secretion” value in data set [2] is listed as “may not interact with adenosine receptors”.

As for `COC(=O)C1=C(C)NC(C)=C(C(=O)OC)C1c1ccccc1[N+](=O)[O-]` [Compound 60, nifedipine], in [1], the “effect on adenosine receptor binding” value is listed as “potent in reducing the binding”. Moreover, the “interaction with adenosine receptors mediating inhibition of insulin secretion” value in data set [2] is “may not interact with adenosine receptors”.

On to `CN1C=CC2=C(CC(=O)O)Cn3nc(-c4ccccc4)nc3C2=C1` [Compound L-249313, 6-carboxymethyl-5,9-dihydro-9-methyl-2-phenyl-[1,2,4]triazolo[5,1-a][2,7]-naphthyridine], for which, in data set [3] (0.5 μM alone), the “inhibition of proliferation, HL-60” value is given as “general inhibition of proliferation of cells”. Also, the “growth curve with A3 antagonist plus Cl-IB-MECA, HL-60” value in data set [3] (setting [16]) is given as “the growth curves were nearly coincident with control curves”. The “inhibition of proliferation, U-937” value in data set [4] (0.5 μM alone) was “general inhibition of proliferation of cells”. In addition, the “growth curve with A3 antagonist plus Cl-IB-MECA, U-937” value in data set [4] (setting [16]) is “the growth curves were nearly coincident with control curves”. In [5] (50 nM, 24 h, approximately), the “fluorescent labeling of apoptotic cells, HL-60” value is 30-40%. Moreover, in [5] (setting [17]), the “Percentage of apoptotic cells, HL-60, + Cl-IB-MECA” value was 12.0 Percentage. In [5] (setting [18]), the “Percentage of apoptotic cells, HL-60” value is reported as 31.2 Percentage. For the same compound, in data set [6] (50 nM, 24 h, approximately), the “fluorescent labeling of apoptotic cells, U-937” value was 30-40%. In addition, the “Percentage of apoptotic cells, U937, + Cl-IB-MECA” value in data set [6] (setting [17]) turned out to be 10.9 Percentage. Further, the “Percentage of apoptotic cells, U937” value in [6] (setting [18]) came to 30.8 Percentage. For the same compound, the “bak labeling, HL-60” value in data set [7] (24 hours) is reported as “present”. Moreover, the “bak labeling, U-937” value in data set [8] (24 hours) is recorded as “present”.

On to `COc1ccc([C@@H]2Sc3ccccc3N(CCN(C)C)C(=O)[C@@H]2OC(C)=O)cc1` [diltiazem], for which the “effect on adenosine receptor binding” value in [1] is “negligible effects on adenosine receptor binding”.

In the case of `Nc1ccc(CCNc2ncnc3c2ncn3[C@@H]2O[C@H](CO)[C@@H](O)[C@H]2O)cc1` [APNEA], the “displacement of A3 specific binding” value in data set [9] is reported as “A3 specific binding was displaced”.

For the compound `CNC(=O)[C@H]1O[C@@H](n2cnc3c(NCc4cccc(I)c4)nc(Cl)nc32)[C@H](O)[C@@H]1O` [Cl-IB-MECA, N^6-(3-iodobenzyl)-2-chloro-adenosine-5'-N-methyluronamide], the “concentration at which plateau of apoptosis begins, HL-60” value in [10] (48 hours) is given as “approximately 10 μM”. In [10] (48 hours), the “plateau in the percent of apoptotic cells, HL-60” value was 30-50%. The “apoptosis in HL-60 cells” value in data set [10] (high concentrations (≥μM)) is given as “caused apoptosis”. Also, the “apoptosis at lower concentrations, HL-60” value in [10] (≤1 μM) is “did not significantly promote apoptosis”. For the same compound, the “concentration at which plateau of apoptosis begins, U-937” value in data set [11] (48 hours) is recorded as “approximately 10 μM”. Besides, the “plateau in the percent of apoptotic cells, U-937” value in data set [11] (48 hours) was 30-50%. For the same compound, the “apoptosis in U-937 cells” value in data set [11] (high concentrations (≥μM)) is listed as “A similar response was observed”. The “apoptosis at lower concentrations, U-937” value in data set [11] (≤1 μM) is recorded as “did not significantly promote apoptosis”. The “growth curve, HL-60” value in data set [3] (0.01 or 1.0 μM alone, 9 days) is “no deviation from this growth curve was observed”. Also, the “death of HL-60 cells in culture” value in [3] (20 or 40 μM, after 4 days) is listed as more than 90%. Further, the “effect of agonist on impairment of proliferation by antagonist, HL-60” value in data set [3] (setting [19]) is reported as “reversed the impairment of cell proliferation”. For the same compound, the “general cell death at lower concentrations, HL-60” value in [3] (≤1 μM, trypan blue) is given as “did not significantly promote”. Further, the “growth curve, U-937” value in data set [4] (0.01 or 1.0 μM alone, 9 days) was “no deviation from this growth curve was observed”. Also, the “effect of agonist on impairment of proliferation by antagonist, U-937” value in data set [4] (setting [19]) is on record as “reversed the impairment of cell proliferation”. For the same compound, the “general cell death at lower concentrations, U-937” value in data set [4] (≤1 μM, trypan blue) was “did not significantly promote”. Besides, the “coadministration with antagonist, apoptotic cells, HL-60” value in data set [5] (setting [20]) is “suppressed the increase in apoptotic cells”. In addition, the “apoptosis (TUNEL), Cl-IB-MECA alone, HL-60” value in data set [5] (setting [21]) is recorded as 5-7%. For the same compound, the “DNA fragmentation labeling (TUNEL), HL-60” value in data set [5] (30 μM) was “approximately 50%”. Also, the “Percentage of apoptotic cells, HL-60, Cl-IB-MECA alone” value in data set [5] (setting [22]) was found to be 7.1 Percentage. For the same compound, in [6] (setting [20]), the “coadministration with antagonist, apoptotic cells, U-937” value is “suppressed the increase in apoptotic cells”. Besides, the “apoptosis (TUNEL), Cl-IB-MECA alone, U-937” value in data set [6] (setting [21]) is 5-7%. Also, in data set [6] (30 μM), the “DNA fragmentation labeling (TUNEL), U-937” value is recorded as “approximately 50%”. Further, the “Percentage of apoptotic cells, U937, Cl-IB-MECA alone” value in data set [6] (setting [22]) is given as 5.6 Percentage. For the same compound, the “expression of bak, HL-60” value in [7] (30 μM) is given as “induced a significant level of expression of bak”; in data set [7] (≤1 μM), “not concentrations ≤1 μM”. Moreover, the results for the “expression of bak, U-937” value in data set [8] (30 μM) and in [8] (≤1 μM) were “induced a significant level of expression of bak” and “not concentrations ≤1 μM”, respectively. Besides, the “expression of bak, MCF7” value in data set [12] is given as “found to induce the expression of bak”. Further, in data set [13], the “expression of bak, 1321N” value is listed as “found to induce the expression of bak”.

For orientation: Ki means a dissociation constant, usually derived from enzyme kinetics or from competition with a known ligand. Turning to `O=C(Cc1ccccc1)Nc1nc2ccc(Cl)cc2c2nc(-c3ccco3)nn12` [Compound 153, 9-Chloro-2-(2-furyl)-5-phenylacetylamino[1,2,4]triazolo [1,5-c]quinazoline], the Ki in data set [14] was 305 ± 51 nM; in [15], 52 ± 8.8 nM. Besides, the “expression of bak protein, HL-60” value in [7] (10 nM) is reported as “induced”. In addition, the “expression of bak protein, U-937” value in data set [8] (10 nM) is “induced”.
